molecular target: JAK2 (JH1 domain-catalytic, Y1007F, Y1008F) kinase (Homo sapiens (Human), UniProt O60674, Y1007F/Y1008F); test: JAK2 JH1 Domain Binding Assay; conditions: qPCR readout
Procedure, shortened: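 Competitive binding format: test compound, DNA-tagged JAK2 JH1 (Y1007F/Y1008F; HEK293-expressed NFkB fusion) and ligand-coated magnetic beads incubated 1 h at room temperature. Kinase retained on beads released with 0.5 μmol/L non-biotinylated ligand, then measured by qPCR.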

JAK2 (JH1 domain-catalytic, Y1007F, Y1008F) kinase, sequence (O60674 849-1124 Y1007F/Y1008F): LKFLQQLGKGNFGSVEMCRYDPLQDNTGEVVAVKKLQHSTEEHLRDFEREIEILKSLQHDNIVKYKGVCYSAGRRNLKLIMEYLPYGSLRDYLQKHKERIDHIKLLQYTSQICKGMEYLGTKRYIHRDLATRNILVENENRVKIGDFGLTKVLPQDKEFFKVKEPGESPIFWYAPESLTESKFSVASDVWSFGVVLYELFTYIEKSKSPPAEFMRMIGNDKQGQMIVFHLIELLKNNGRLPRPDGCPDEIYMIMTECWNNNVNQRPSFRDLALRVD

SMILES | Kd
Cc1n[nH]c2ncc(N3CCC(N(C)C(=O)Nc4cc(C(F)(F)F)cn(C)c4=O)CC3)cc12 [Example I-28, 1-methyl-1-(1-(3-methyl-1H-pyrazolo[3,4-b]pyridin-5-yl)piperidin-4-yl)-3-(1-methyl-2-oxo-5-(trifluoromethyl)-1,2-dihydropyridin-3-yl)urea] | < 10 nM
CN(C(=O)Nc1cc(C(F)(F)F)cn(C)c1=O)[C@@H]1CCN(c2cnc3[nH]ncc3c2)CC1(F)F [Example I-29-a, (R)-1-(3,3-difluoro-1-(1H-pyrazolo[3,4-b]pyridin-5-yl)piperidin-4-yl)-1-methyl-3-(1-methyl-2-oxo-5-(trifluoromethyl)-1,2-dihydropyridin-3-yl)urea] | < 10 nM
CN(C(=O)Nc1cc(C(F)(F)F)cn(C)c1=O)[C@H]1CCN(c2cnc3[nH]ncc3c2)CC1(F)F [Example I-29-b, (S)-1-(3,3-difluoro-1-(1H-pyrazolo[3,4-b]pyridin-5-yl)piperidin-4-yl)-1-methyl-3-(1-methyl-2-oxo-5-(trifluoromethyl)-1,2-dihydropyridin-3-yl)urea] | < 10 nM
Cc1c[nH]c2ncc(N3CCC(N(C)C(=O)Nc4cc(C(F)(F)F)cn(C)c4=O)CC3)nc12 [Example I-30, 1-methyl-3-(1-methyl-2-oxo-5-(trifluoromethyl)-1,2-dihydropyridin-3-yl)-1-(1-(7-methyl-5H-pyrrolo[2,3-b]pyrazin-2-yl)piperidin-4-yl)urea] | < 10 nM
Cc1cc2nc(N3CCC(N(C)C(=O)Nc4cc(C(F)(F)F)cn(C)c4=O)CC3)cnc2[nH]1 [Example I-31, 1-methyl-3-(1-methyl-2-oxo-5-(trifluoromethyl)-1,2-dihydropyridin-3-yl)-1-(1-(6-methyl-5H-pyrrolo[2,3-b]pyrazin-2-yl)piperidin-4-yl)urea] | < 10 nM
CN(C(=O)Nc1cc(C(F)(F)F)cn(C)c1=O)C1CCN(c2cnc3[nH]cnc3c2)CC1 [Example I-38, 1-(1-(3H-imidazo[4,5-b]pyridin-6-yl)piperidin-4-yl)-1-methyl-3-(1-methyl-2-oxo-5-(trifluoromethyl)-1,2-dihydropyridin-3-yl)urea] | 10 to 50 nM
CN(C(=O)Nc1cc(C(F)(F)F)cn(C)c1=O)C1CCN(c2cnc3[nH]cc(F)c3n2)CC1 [Example I-39, 1-(1-(7-fluoro-5H-pyrrolo[2,3-b]pyrazin-2-yl)piperidin-4-yl)-1-methyl-3-(1-methyl-2-oxo-5-(trifluoromethyl)-1,2-dihydropyridin-3-yl)urea] | < 10 nM
CN(C(=O)Nc1cc(C(F)(F)F)cn(C)c1=O)C1CCN(c2cnc3[nH]cc(C4CC4)c3n2)CC1 [Example I-40, 1-(1-(7-cyclopropyl-5H-pyrrolo[2,3-b]pyrazin-2-yl)piperidin-4-yl)-1-methyl-3-(1-methyl-2-oxo-5-(trifluoromethyl)-1,2-dihydropyridin-3-yl)urea] | < 10 nM
CNc1ccnc2c(N3CCC(N(C)C(=O)Nc4cc(C(F)(F)F)cn(C)c4=O)CC3)cnn12 [Example I-42, 1-methyl-3-(1-methyl-2-oxo-5-(trifluoromethyl)-1,2-dihydropyridin-3-yl)-1-(1-(7-(methylamino)pyrazolo[1,5-a]pyrimidin-3-yl)piperidin-4-yl)urea] | < 10 nM
CN(C(=O)Nc1cc(C(F)(F)F)cn(C)c1=O)[C@@H]1C[C@@H]2C[C@H]1CN2c1cnc2[nH]ccc2n1 [Example I-43-a, 1-((1S,4S,5R)-2-(5H-pyrrolo[2,3-b]pyrazin-2-yl)-2-azabicyclo[2.2.1]heptan-5-yl)-1-methyl-3-(1-methyl-2-oxo-5-(trifluoromethyl)-1,2-dihydropyridin-3-yl)urea] | 10 to 50 nM
CN(C(=O)Nc1cc(C(F)(F)F)cn(C)c1=O)[C@H]1C[C@H]2C[C@@H]1CN2c1cnc2[nH]ccc2n1 [Example I-43-b, 1-((1R,4R,5S)-2-(5H-pyrrolo[2,3-b]pyrazin-2-yl)-2-azabicyclo[2.2.1]heptan-5-yl)-1-methyl-3-(1-methyl-2-oxo-5-(trifluoromethyl)-1,2-dihydropyridin-3-yl)urea] | 10 to 50 nM

Source: US20240116892A1, “HETEROCYCLIC AMIDE AND UREA COMPOUNDS AS JAK2 INHIBITORS” (Ajax Therapeutics, Inc., priority 2022, published 2024)
